pIC50: −log10 of the molar value. Where a SMILES comes first, the peptide text is derived from it. Bridges are numbered along the chain shown (N, C = ends). [ ]: non-standard residue; d: D form. ξ: configuration not given here. Trp(1-CH2COOH) = N[C@@H](Cc1cn(CC(=O)O)c2ccccc12)C(=O)O; Phe(3,4,5-F3) = N[C@@H](Cc1cc(F)c(F)c(F)c1)C(=O)O; Morpholine(3S-CO) = O=C(O)[C@@H]1COCCN1; Phe(4-F) = N[C@@H](Cc1ccc(F)cc1)C(=O)O; d(cisHyp) = O=C(O)[C@H]1C[C@@H](O)CN1; Bta = N[C@@H](Cc1csc2ccccc12)C(=O)O; Lys(Me2) = CN(C)CCCC[C@H](N)C(=O)O; NMeIle(3ξ) = CCC(C)[C@H](NC)C(=O)O; Hyp = O=C(O)[C@@H]1C[C@@H](O)CN1; NMeF = CN[C@@H](Cc1ccccc1)C(=O)O; NMeNle = CCCC[C@H](NC)C(=O)O; Pip = O=C(O)[C@@H]1CCCCN1; hSer = N[C@@H](CCO)C(=O)O; NMeA = CN[C@@H](C)C(=O)O; Orn = NCCC[C@H](N)C(=O)O; Dab = NCC[C@H](N)C(=O)O; Dap = NC[C@H](N)C(=O)O; ξP = O=C(O)C1CCCN1
Molecular target: T1, Human PD-L1/PD-1 (Homo sapiens, UniProt Q9NZQ7)
T1 construct: TVMV protease cleavage site (C); made in house; host or cells: HEK293T cells
Assay: HTRF Human PD-L1/PD-1 binding assay (PD-1-Ig/PD-L1-His)
Settings: PD-L1-His 10 nM, PD-1-Ig 20 nM; class symbol; read-out: HTRF Human PD-L1/PD-1 Binding Assay IC50 Range
In short: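 Step 1: compound with PD-L1-His (10 nM final), 15 min. Step 2: PD-1-Ig (20 nM final), 15 min. Step 3: Eu-cryptate anti-Ig (1 nM) plus APC anti-His (20 nM), 30 min equilibration. Signal taken as 665 nm/620 nm ratio.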

T1 sequence (Q9NZQ7 with tags, fused parts or gaps): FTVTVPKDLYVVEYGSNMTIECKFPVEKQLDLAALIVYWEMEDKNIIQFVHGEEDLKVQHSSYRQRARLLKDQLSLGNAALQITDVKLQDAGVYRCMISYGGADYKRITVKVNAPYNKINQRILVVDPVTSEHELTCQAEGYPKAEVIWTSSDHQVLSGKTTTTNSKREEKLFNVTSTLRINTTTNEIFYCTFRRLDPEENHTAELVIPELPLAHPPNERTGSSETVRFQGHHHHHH

| SMILES | pIC50 |
| --- | --- |
| CCCC[C@H]1C(=O)N(C)[C@@H](CCCC)C(=O)N[C@@H](CCC(=O)O)C(=O)N[C@H](C(=O)NCC(N)=O)CSCC(=O)N[C@@H](Cc2ccc(O)cc2)C(=O)N(C)[C@@H](C)C(=O)N[C@@H](CC(=O)O)C(=O)N2CCCC2C(=O)N[C@@H](CN)C(=O)N[C@@H](CCC(=O)O)C(=O)N2C[C@H](O)C[C@H]2C(=O)N[C@@H](Cc2c[nH]c3ccccc23)C(=O)N[C@@H](CCN)C(=O)N[C@@H](Cc2cn(CC(=O)O)c3ccccc23)C(=O)N1C (some centres unmarked) [Example 6172] ({CH2CO}-Y[NMeA]D[ξP][Dap]E[Hyp]W[Dab][Trp(1-CH2COOH)][NMeNle][NMeNle]ECG-NH2; thioether N-14) | 8.00 to 9.00 |
| CCCC[C@H]1C(=O)N(C)[C@@H](CCCC)C(=O)N[C@@H](CCC(=O)O)C(=O)N[C@H](C(=O)NCC(N)=O)CSCC(=O)N[C@@H](Cc2ccc(O)cc2)C(=O)N(C)[C@@H](C)C(=O)N[C@@H](CC(=O)O)C(=O)N2CCC[C@H]2C(=O)N[C@@H](CN)C(=O)N[C@@H](CCC(=O)O)C(=O)N2C[C@H](O)C[C@H]2C(=O)N[C@@H](Cc2c[nH]c3ccccc23)C(=O)N[C@@H](CO)C(=O)N[C@@H](Cc2c[nH]c3ccccc23)C(=O)N1C [Example 5170] ({CH2CO}-Y[NMeA]DP[Dap]E[Hyp]WSW[NMeNle][NMeNle]ECG-NH2; thioether N-14) | 8.00 to 9.00 |
| CCCC[C@H]1C(=O)N(C)[C@@H](CCCC)C(=O)N[C@@H](CO)C(=O)N[C@H](C(=O)NCC(N)=O)CSCC(=O)N[C@@H](Cc2ccc(OC)cc2)C(=O)N(C)[C@@H](C)C(=O)N[C@@H](CC(N)=O)C(=O)N2CCC[C@H]2C(=O)N[C@@H](CO)C(=O)N[C@@H](CCC(N)=O)C(=O)N2C[C@H](O)C[C@H]2C(=O)N[C@@H](Cc2c[nH]c3ccccc23)C(=O)N[C@@H](CO)C(=O)N[C@@H](Cc2cn(CC(=O)O)c3ccccc23)C(=O)N1C [Example 7144] ({CH2CO}-Y(Me)[NMeA]NPSQ[Hyp]WS[Trp(1-CH2COOH)][NMeNle][NMeNle]SCG-NH2; thioether N-14) | 8.00 to 9.00 |
| CCCC[C@H]1C(=O)N2C[C@H](O)C[C@@H]2C(=O)N[C@@H](CC(=O)O)C(=O)N[C@@H](C(C)C)C(=O)N(C)[C@@H](Cc2ccccc2)C(=O)N[C@@H](Cc2ccc(O)cc2)C(=O)N2CCC[C@@H]2C(=O)N[C@@H](Cc2c[nH]c3ccccc23)C(=O)N[C@@H](Cc2ccc(O)cc2)C(=O)N[C@@H](CCOC)C(=O)N[C@H](C(=O)NCC(N)=O)CSCC(=O)N[C@@H](Cc2cc(F)c(F)c(F)c2)C(=O)N(C)[C@@H](Cc2ccccc2)C(=O)N1C [Example 10186] ({CH2CO}-[Phe(3,4,5-F3)][NMeF][NMeNle][d(cisHyp)]DV[NMeF]Y[dP]WY[hSer](Me)CG-NH2; thioether N-13) | 7.00 to 8.00 |
| CCCC[C@H]1C(=O)N2C[C@H](O)C[C@@H]2C(=O)N[C@@H](CC(=O)O)C(=O)N[C@@H](C(C)C)C(=O)N(C)[C@@H](Cc2ccccc2)C(=O)N[C@@H](CCC(=O)O)C(=O)N2C[C@H](O)C[C@@H]2C(=O)N[C@@H](Cc2c[nH]c3ccccc23)C(=O)N[C@@H](Cc2ccc(O)cc2)C(=O)N[C@@H](CCC(N)=O)C(=O)N[C@H](C(=O)NCC(N)=O)CSCC(=O)N[C@@H](Cc2cc(F)c(F)c(F)c2)C(=O)N(C)[C@@H](Cc2ccccc2)C(=O)N1C [Example 9337] ({CH2CO}-[Phe(3,4,5-F3)][NMeF][NMeNle][d(cisHyp)]DV[NMeF]E[d(cisHyp)]WYQCG-NH2; thioether N-13) | 7.00 to 8.00 |
| CCCC[C@H]1C(=O)N2C[C@H](O)C[C@@H]2C(=O)N[C@@H](CC(=O)O)C(=O)N[C@@H](C(C)C)C(=O)N(C)[C@@H](Cc2ccccc2)C(=O)N[C@@H](Cc2ccc(O)cc2)C(=O)N2C[C@H](O)C[C@@H]2C(=O)N[C@@H](Cc2c[nH]c3ccccc23)C(=O)N[C@@H](Cc2ccc(O)cc2)C(=O)N[C@@H](CC(C)C)C(=O)N[C@H](C(=O)NCC(N)=O)CSCC(=O)N[C@@H](Cc2cc(F)c(F)c(F)c2)C(=O)N(C)[C@@H](Cc2ccccc2)C(=O)N1C [Example 9367] ({CH2CO}-[Phe(3,4,5-F3)][NMeF][NMeNle][d(cisHyp)]DV[NMeF]Y[d(cisHyp)]WYLCG-NH2; thioether N-13) | 7.00 to 8.00 |
| CCCC[C@H]1C(=O)N(C)[C@@H](CCCC)C(=O)N[C@@H](CCCN)C(=O)N[C@H](C(=O)NCC(N)=O)CSCC(=O)N[C@@H](Cc2ccc(O)cc2)C(=O)N(C)[C@@H](C)C(=O)N[C@@H](CC(=O)O)C(=O)N2CCC[C@H]2C(=O)N[C@@H](Cc2cnc[nH]2)C(=O)N[C@@H](CCC(=O)O)C(=O)N2C[C@H](O)C[C@H]2C(=O)N[C@@H](Cc2c[nH]c3ccccc23)C(=O)N[C@@H](CO)C(=O)N[C@@H](Cc2cn(CC(=O)O)c3ccccc23)C(=O)N1C [Example 6269] ({CH2CO}-Y[NMeA]DPHE[Hyp]WS[Trp(1-CH2COOH)][NMeNle][NMeNle][Orn]CG-NH2; thioether N-14) | 7.00 to 8.00 |
| CCCC[C@H]1C(=O)N2CCC[C@@H]2C(=O)N[C@@H](CC(=O)O)C(=O)N[C@@H](C(C)C)C(=O)N(C)[C@@H](C(C)CC)C(=O)N[C@@H](Cc2ccc(O)cc2)C(=O)N2CCC[C@@H]2C(=O)N[C@@H](Cc2c[nH]c3ccccc23)C(=O)N[C@@H](Cc2ccc(O)cc2)C(=O)N[C@@H](CC(C)C)C(=O)N[C@H](C(=O)NCC(N)=O)CSCC(=O)N[C@@H](Cc2ccc(F)cc2)C(=O)N(C)[C@@H](Cc2ccccc2)C(=O)N1C (some centres unmarked) [Example 9257] ({CH2CO}-[Phe(4-F)][NMeF][NMeNle][dP]DV[NMeIle(3ξ)]Y[dP]WYLCG-NH2; thioether N-13) | 5.00 to 6.00 |

The remaining lines, values ahead:

| pIC50 | SMILES |
| --- | --- |
| 8.00 to 9.00 | CCCC[C@H]1C(=O)N(C)[C@@H](CCCC)C(=O)N[C@@H](CCC(=O)O)C(=O)N[C@H](C(=O)NCC(N)=O)CSCC(=O)N[C@@H](Cc2ccc(O)cc2)C(=O)N2CCOC[C@H]2C(=O)N[C@@H](CC(=O)O)C(=O)N2CCC[C@H]2C(=O)N[C@@H](Cc2c[nH]cn2)C(=O)N[C@@H](CCC(N)=O)C(=O)N2C[C@H](O)C[C@H]2C(=O)N[C@@H](Cc2c[nH]c3ccccc23)C(=O)N[C@@H](CO)C(=O)N[C@@H](Cc2c[nH]c3ccccc23)C(=O)N1C [Example 1515] ({CH2CO}-Y[Morpholine(3S-CO)]DPHQ[Hyp]WSW[NMeNle][NMeNle]ECG-NH2; thioether N-14) |
| 7.00 to 8.00 | CCCC[C@H]1C(=O)N(C)[C@@H](CCCC)C(=O)N[C@@H](CCCCN(C)C)C(=O)N[C@H](C(=O)NCC(N)=O)CSCC(=O)N[C@@H](Cc2ccc(O)cc2)C(=O)N2CCCC[C@H]2C(=O)N[C@@H](CC(=O)O)C(=O)N2CCC[C@H]2C(=O)N[C@@H](CN)C(=O)N[C@@H](CCC(=O)O)C(=O)N2C[C@H](O)C[C@H]2C(=O)N[C@@H](Cc2c[nH]c3ccccc23)C(=O)N[C@@H](CO)C(=O)N[C@@H](Cc2c[nH]c3ccccc23)C(=O)N1C [Example 1306] ({CH2CO}-Y[Pip]DP[Dap]E[Hyp]WSW[NMeNle][NMeNle][Lys(Me2)]CG-NH2; thioether N-14) |
| 8.00 to 9.00 | CCCC[C@H]1C(=O)N(C)[C@@H](CCCC)C(=O)N[C@@H](C)C(=O)N[C@H](C(=O)NCC(N)=O)CSCC(=O)N[C@@H](Cc2ccc(O)cc2)C(=O)N2CCCC[C@H]2C(=O)N[C@@H](CC(=O)O)C(=O)N2CCC[C@H]2C(=O)N[C@@H](Cc2cnc[nH]2)C(=O)N[C@@H](CCC(N)=O)C(=O)N2C[C@H](O)C[C@H]2C(=O)N[C@@H](Cc2c[nH]c3ccccc23)C(=O)N[C@@H](CO)C(=O)N[C@@H](Cc2csc3ccccc23)C(=O)N1C [Example 1508] ({CH2CO}-Y[Pip]DPHQ[Hyp]WS[Bta][NMeNle][NMeNle]ACG-NH2; thioether N-14) |
